Test [1] concerns the target T1, 5-hydroxytryptamine receptor 1A (Rattus norvegicus, UniProt P19327).
T1 sequence (P19327 whole entry): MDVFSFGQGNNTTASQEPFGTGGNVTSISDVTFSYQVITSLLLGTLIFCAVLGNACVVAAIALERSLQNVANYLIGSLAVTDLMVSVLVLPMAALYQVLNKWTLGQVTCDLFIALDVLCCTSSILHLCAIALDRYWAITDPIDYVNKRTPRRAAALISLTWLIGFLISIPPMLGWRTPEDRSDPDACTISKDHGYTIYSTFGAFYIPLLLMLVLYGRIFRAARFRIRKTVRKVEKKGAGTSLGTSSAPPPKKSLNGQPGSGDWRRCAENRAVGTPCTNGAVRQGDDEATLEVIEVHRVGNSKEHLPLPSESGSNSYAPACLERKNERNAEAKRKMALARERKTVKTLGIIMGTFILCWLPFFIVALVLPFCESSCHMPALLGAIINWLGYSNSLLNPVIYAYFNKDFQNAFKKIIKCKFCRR
As to the kind of experiment: Binding affinity to 5-hydroxytryptamine 1A receptor (5-HT 1A receptor, serotonin receptor) from rat cortex using [3H]8-OH-DPAT as radioligand.

The target in test [2] is 5-hydroxytryptamine receptor 2A (Rattus norvegicus, UniProt P14842). In words: Affinity at 5-hydroxytryptamine 2 receptor from rat frontal cortex using [3H]ketanserin as radioligand (For ketanserin = Ki(nM)=0.7+/-0.09). It is filed as tissue-based.
The target of test [3] is T2, 5-hydroxytryptamine receptor 3A (Rattus norvegicus, UniProt P35563).
T2 sequence (P35563 whole entry): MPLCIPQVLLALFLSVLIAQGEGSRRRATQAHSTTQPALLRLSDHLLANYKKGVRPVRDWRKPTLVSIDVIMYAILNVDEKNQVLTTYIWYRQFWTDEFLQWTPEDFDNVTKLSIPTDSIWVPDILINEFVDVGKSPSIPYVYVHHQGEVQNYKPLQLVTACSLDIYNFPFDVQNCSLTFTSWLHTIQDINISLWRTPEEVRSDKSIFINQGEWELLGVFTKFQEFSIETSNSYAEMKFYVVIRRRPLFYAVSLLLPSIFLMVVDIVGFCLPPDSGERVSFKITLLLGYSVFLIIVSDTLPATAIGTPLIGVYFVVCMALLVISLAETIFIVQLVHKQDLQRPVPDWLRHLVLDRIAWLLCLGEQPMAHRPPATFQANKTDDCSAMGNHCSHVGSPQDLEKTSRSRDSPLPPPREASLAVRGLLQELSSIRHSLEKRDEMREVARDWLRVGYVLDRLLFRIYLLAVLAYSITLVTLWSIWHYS
As to the kind of experiment: Affinity at 5-hydroxytryptamine 3 receptor from rat frontal cortex using [3H]granisetron as radioligand (For granisetron = Ki(nM)=0.3+/-0.01). The class given is tissue-based.

Test [4] addresses T3, Adrenergic receptor alpha-2 (Rattus norvegicus, UniProt P22086+P19328+P22909).
T3 sequence (P22086 whole entry): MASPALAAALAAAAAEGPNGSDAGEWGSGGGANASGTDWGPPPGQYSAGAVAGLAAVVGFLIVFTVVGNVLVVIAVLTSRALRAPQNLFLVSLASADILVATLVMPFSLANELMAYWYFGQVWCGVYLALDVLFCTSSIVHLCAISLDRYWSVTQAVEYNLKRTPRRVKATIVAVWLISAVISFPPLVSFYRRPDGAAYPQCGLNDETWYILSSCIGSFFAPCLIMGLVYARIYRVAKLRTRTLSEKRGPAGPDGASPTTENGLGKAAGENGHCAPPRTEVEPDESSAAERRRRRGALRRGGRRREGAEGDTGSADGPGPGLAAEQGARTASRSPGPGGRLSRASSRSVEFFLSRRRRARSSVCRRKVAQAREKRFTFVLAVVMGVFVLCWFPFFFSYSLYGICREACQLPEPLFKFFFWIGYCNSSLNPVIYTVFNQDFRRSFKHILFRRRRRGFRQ
T3 sequence (P19328 whole entry): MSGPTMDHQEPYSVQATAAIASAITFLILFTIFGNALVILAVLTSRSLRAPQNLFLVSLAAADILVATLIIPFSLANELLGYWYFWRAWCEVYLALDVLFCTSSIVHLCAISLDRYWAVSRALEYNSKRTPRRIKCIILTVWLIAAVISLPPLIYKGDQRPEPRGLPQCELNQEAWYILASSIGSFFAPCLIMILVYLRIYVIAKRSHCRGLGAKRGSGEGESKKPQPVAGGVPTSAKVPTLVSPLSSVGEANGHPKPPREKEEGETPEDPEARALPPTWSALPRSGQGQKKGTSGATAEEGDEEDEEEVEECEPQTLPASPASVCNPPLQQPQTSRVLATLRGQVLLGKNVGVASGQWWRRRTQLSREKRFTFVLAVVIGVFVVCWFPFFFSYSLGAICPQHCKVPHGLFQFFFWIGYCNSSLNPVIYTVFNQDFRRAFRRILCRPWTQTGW
T3 sequence (P22909 whole entry): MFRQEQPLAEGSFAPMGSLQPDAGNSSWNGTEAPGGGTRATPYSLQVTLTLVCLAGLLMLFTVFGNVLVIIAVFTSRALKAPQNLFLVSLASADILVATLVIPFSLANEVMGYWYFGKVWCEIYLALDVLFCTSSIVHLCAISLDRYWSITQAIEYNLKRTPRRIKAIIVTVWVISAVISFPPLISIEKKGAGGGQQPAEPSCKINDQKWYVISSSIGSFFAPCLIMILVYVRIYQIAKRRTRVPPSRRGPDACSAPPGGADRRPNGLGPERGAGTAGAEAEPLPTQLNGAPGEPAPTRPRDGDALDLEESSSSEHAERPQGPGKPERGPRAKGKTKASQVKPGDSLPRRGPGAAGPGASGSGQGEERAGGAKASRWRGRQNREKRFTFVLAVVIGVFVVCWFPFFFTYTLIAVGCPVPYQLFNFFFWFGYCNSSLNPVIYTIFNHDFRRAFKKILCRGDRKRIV
As to the kind of experiment: Affinity towards alpha-2 adrenoceptor from rat cortex using [3H]-clonidine as radioligand (For clonidine Ki(nM)= […]+/-[…]).

In another test the target is D(2) dopamine receptor (Rattus norvegicus, UniProt P61169). As to the kind of experiment: Affinity at dopamine D2 receptor from rat striatum using [3H]spiroperidol as radioligand (For haloperidol Ki(nM)= 1.5+/-1.2). It is filed as tissue-based.
Test [5] has as its system Mus musculus. As to the kind of experiment: Antidepressant-like activity in the forced swimming test (FST) in mice at 0.1 mg/kg dose; Antidepressant like activity. It is filed as functional.
Test [6] deals with Mus musculus. As to the kind of experiment: Antidepressant-like activity in the forced swimming test (FST) in mice at 1 mg/kg dose; Antidepressant like activity. The class given is functional.
The subject of test [7] is Mus musculus. As to the kind of experiment: Antidepressant-like activity in the forced swimming test (FST) in mice at 10 mg/kg dose; Antidepressant like activity. The class given is functional.
The subject of test [8] is Mus musculus. As to the kind of experiment: Time-dependent effect on 8-OH-DPAT-induced hypothermia (change in body temperature) after 30 min, in mice at 5 mg/kg dose. It is filed as functional.
The target in test [9] is Muscarinic acetylcholine receptor. In words: Affinity at muscarinic receptor from rat cortex using [3H]-QNB as radioligand (For atropine Ki(nM)= 3.5+/-0.3).
In the next test the target is Adrenergic receptor beta (Rattus norvegicus, UniProt P18090+P10608+P26255).
The subject of another test is Rattus norvegicus. As to the kind of experiment: Effect on helpless behavior in rats and the number of escape failures was determined in shuttle-box session-3 (SB-3) at 1 mg/kg dose. The class given is functional.

Sequence of 5-hydroxytryptamine receptor 2A (P14842 whole entry): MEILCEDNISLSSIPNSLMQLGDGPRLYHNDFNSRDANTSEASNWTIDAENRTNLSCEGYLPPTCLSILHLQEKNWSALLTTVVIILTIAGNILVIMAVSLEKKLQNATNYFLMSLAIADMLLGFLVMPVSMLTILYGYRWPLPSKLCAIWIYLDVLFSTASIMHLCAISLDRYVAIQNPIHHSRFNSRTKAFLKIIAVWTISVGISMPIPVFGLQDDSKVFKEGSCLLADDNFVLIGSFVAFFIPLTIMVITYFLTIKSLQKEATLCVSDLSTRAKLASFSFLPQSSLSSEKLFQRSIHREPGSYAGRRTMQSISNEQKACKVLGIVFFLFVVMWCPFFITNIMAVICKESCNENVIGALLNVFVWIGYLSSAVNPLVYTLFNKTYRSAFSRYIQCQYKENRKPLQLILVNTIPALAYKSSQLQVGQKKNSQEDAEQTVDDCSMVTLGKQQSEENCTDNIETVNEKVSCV
Sequence of D(2) dopamine receptor (P61169 whole entry): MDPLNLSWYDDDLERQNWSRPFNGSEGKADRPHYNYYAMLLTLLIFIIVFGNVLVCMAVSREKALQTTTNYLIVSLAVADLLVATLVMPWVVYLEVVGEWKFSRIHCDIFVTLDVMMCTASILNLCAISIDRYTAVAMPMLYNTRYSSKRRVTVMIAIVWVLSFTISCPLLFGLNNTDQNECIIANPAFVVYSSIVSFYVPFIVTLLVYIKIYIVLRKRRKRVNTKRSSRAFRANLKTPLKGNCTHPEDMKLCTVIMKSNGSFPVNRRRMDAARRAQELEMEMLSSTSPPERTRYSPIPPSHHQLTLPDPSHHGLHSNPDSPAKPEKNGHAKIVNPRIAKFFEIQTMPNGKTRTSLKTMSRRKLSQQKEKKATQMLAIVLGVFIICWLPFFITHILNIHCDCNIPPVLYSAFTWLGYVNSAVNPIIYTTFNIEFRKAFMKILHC

Usually Ki stands for the equilibrium dissociation constant of an inhibitor or competing ligand from its target. In the case of `COc1ccccc1N1CCN(CCC(O)c2csc3ccccc23)CC1` (stereo not given), the Ki in test [1] (read-out: Ki) is 20 nM; in test [2], 250 nM; in test [3], above 5000 nM; in [4], 2000 nM; on D(2) dopamine receptor, 150 nM; in [9], above 5000 nM. The compound also had a Ki on Adrenergic receptor beta of 750 nM. The Activity is reported as 35% in the test on Mus musculus [5], 33% with Mus musculus [6] and 1% in the test on Mus musculus [7]. Moreover, the Temperature change in the test on Mus musculus [8] was -2.5 °C.
In turn, `COc1ccccc1N1CCN(CCC(=O)c2csc3ccccc23)CC1` gave a Ki in test [1] of 44 nM. For the same compound, the Temperature change with Mus musculus [8] was below -1.47 °C. Moreover, the “No. of escape failures” value in the test with Rattus norvegicus is listed as below 2.8.
As for `COc1ccccc1N1CCN(CCC(Oc2cccc3ccccc23)c2ccsc2)CC1` (stereo not given), the Ki in [1] (read-out: Ki) is 180 nM; in test [2] it was above 5000 nM; in test [3] it was above 5000 nM; in test [4] it was 5000 nM; on D(2) dopamine receptor it was 2500 nM; in [9], above 5000 nM. Further, on Adrenergic receptor beta, the Ki was above 5000 nM. In addition, the values for the Activity in the test with Mus musculus [5], in the test with Mus musculus [6] and in the test on Mus musculus [7] were 0%, 48% and 49%, respectively. For the same compound, the “No. of escape failures” value in the test with Rattus norvegicus was 0.5.

For the origin of these results see ChEMBL document CHEMBL1134339, “New 1-aryl-3-(4-arylpiperazin-1-yl)propane derivatives, with dual action at 5-HT1A serotonin receptors and serotonin transporter, as a new class of antidepressants” (J Med Chem, 2001).
